Among the data in patent US20250129070A1, “BIFUNCTIONAL ANDROGEN RECEPTOR COMPOUNDS” (priority 2023, published 2025) are IC50 and EC50 values, retold here.

In assay [1] the test system is VCaP cells. As to the kind of experiment: VCaP growth inhibition assay. The conditions noted are these: 30 pM R1881, 9 days, CTG. In kind it is cell-based. As for the experimental part:
VCaP cells (ATCC Cat #CRL-2876) are plated at 1×10^4 cells per well of a white plastic 96-well cluster plate (Thermo Scientific Nunc Cat #165306) in 100 uL phenol red-free DMEM (Gibco Cat #21063-029) media with 5% CSS (Omega Scientific Cat #FB-04). Cluster plates are returned to the incubator (37*C/5% CO2) for 72 hours prior to treatment. Just prior to treatment, 100 μL of phenol red-free DMEM/5% CSS and […] R1881 (Sigma Cat #R0908-10 mg) was added to each well of the cluster plates (Final R1881 concentration=30 pM). Compounds (200×) were added to each well in a volume of 1 uL, with serial dilutions (1:5) from 20 uM to 2 pM (final concentrations in well are 100 nM to 10 fM). Cluster plates are returned to the incubator for 9 days.
After the 9-day treatment period, media was removed from the cluster plates by inversion and 100 uL room temperature CTG reagent (Promega Cat #G7573) is added to each well. The cluster plates are placed on a shaker and incubated at room temperature for 20 minutes. Following this shaking/incubation, cluster plates are read on a luminometer (BMG ClarioStar). IC50 values are obtained by graphing the RLU data vs. compound concentration with nonlinear regression 4-parameter logistic curves (GraphPad Prism).

Assay [2] relates to AR / CBP ternary complex. As to the kind of experiment: Ternary complex formation assay (sandwich ELISA, AR capture / CBP detection) in VCaP cell lysates. It is filed as cell-based. Particulars: 1.5 hours treatment, sandwich ELISA (AR capture, CBP or p300 detection). A digest of the protocol: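 Anti-AR (AR 441)-coated plates capture AR from lysates of VCaP cells grown ≥3 days at 50K/well in 5% charcoal-stripped FBS, dosed with bifunctional for 1.5 h and lysed 30 min at 4 °C. Co-captured CBP/p300 is probed with rabbit mAb and HRP anti-rabbit, then QuantaRed fluorescence (570/585) is read at 0, 5 and 15 min.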
A general note: ELISA stands for enzyme-linked immunosorbent assay.

As to `CC(=O)N1CCc2c(c(N3CCCc4cc(-c5ccn(C)n5)c(C(F)F)cc43)nn2C2CCN(CC3CCC(n4cc(C(=O)NC5C(C)(C)C(Oc6ccc(C#N)c(Cl)c6)C5(C)C)cn4)CC3)CC2)C1` (centres unmarked) [Compound 241, 1-[4-[[4-[5-acetyl-3-[7-(difluoromethyl)-6-(1-methylpyrazol-3-yl)-3,4-dihydro-2H-quinolin-1-yl]-6,7-dihydro-4H-pyrazolo[4,3-c]pyridin-1-yl]-1-piperidyl]methyl]cyclohexyl]-N-[3-(3-chloro-4-cyano-phenoxy)-2,2,4,4-tetramethyl-cyclobutyl]pyrazole-4-carboxamide], in assay [1], the IC50 was 0.1 to 1 nM. This compound displayed an EC50 in assay [2] of 1 to 10 nM.
For `COc1cc(OC2C(C)(C)C(NC(=O)c3ccc(N4CC5(CCC(N6CCC(n7nc(-c8cccc9cc(-c%10cnn(C)c%10)ncc89)c8c7CCN(C(C)=O)C8)CC6)CC5)C4)cc3)C2(C)C)ccc1C#N` (centres unmarked) [Compound 448, 4-[7-[4-[5-acetyl-3-[3-(1-methylpyrazol-4-yl)-8-isoquinolyl]-6,7-dihydro-4H-pyrazolo[4,3-c]pyridin-1-yl]-1-piperidyl]-2-azaspiro [3.5]nonan-2-yl]-N-[3-(4-cyano-3-methoxy-phenoxy)-2,2,4,4-tetramethyl-cyclobutyl]benzamide], in that order: 0.1 to 1 nM and below 1 nM.
For `COc1cc(OC2C(C)(C)C(NC(=O)c3ccc(N4CCC(n5ncc6c5CCC(n5nc(N7CCCc8cc(-c9cnn(C)c9)c(C(F)F)cc87)c7c5CCN(C(C)=O)C7)C6)CC4)cc3)C2(C)C)ccc1C#N` (centres unmarked) [Compound 265, 4-[4-[5-[5-acetyl-3-[7-(difluoromethyl)-6-(1-methylpyrazol-4-yl)-3,4-dihydro-2H-quinolin-1-yl]-6,7-dihydro-4H-pyrazolo[4,3-c]pyridin-1-yl]-4,5,6,7-tetrahydroindazol-1-yl]-1-piperidyl]-N-[3-(4-cyano-3-methoxy-phenoxy)-2,2,4,4-tetramethyl-cyclobutyl]benzamide], in that order: at most 0.1 nM and below 1 nM.
The matching figures for `COc1cc(OC2C(C)(C)C(NC(=O)c3ccc(C#CC4CCC(N5CCC(n6nc(N7CCCc8cc(-c9cnn(C)c9)c(C(F)F)cc87)c7c6CCN(C(C)=O)C7)CC5)CC4)cc3)C2(C)C)ccc1C#N` (centres unmarked) [Compound 292, 4-[2-[4-[4-[5-acetyl-3-[7-(difluoromethyl)-6-(1-methylpyrazol-4-yl)-3,4-dihydro-2H-quinolin-1-yl]-6,7-dihydro-4H-pyrazolo[4,3-c]pyridin-1-yl]-1-piperidyl]cyclohexyl]ethynyl]-N-[3-(4-cyano-3-methoxy-phenoxy)-2,2,4,4-tetramethyl-cyclobutyl]benzamide]: 0.1 to 1 nM and below 1 nM.
`CC(=O)N1CCc2c(c(N3CCCc4cc(-c5cnn(C)c5)c(C(F)F)cc43)nn2C2CCC3(CCCN(c4ncc(C(=O)NC5C(C)(C)C(Oc6ccc(C#N)c(Cl)c6)C5(C)C)cn4)C3)CC2)C1` (centres unmarked) [Compound 412, 2-[9-[5-acetyl-3-[7-(difluoromethyl)-6-(1-methylpyrazol-4-yl)-3,4-dihydro-2H-quinolin-1-yl]-6,7-dihydro-4H-pyrazolo[4,3-c]pyridin-1-yl]-2-azaspiro[5.5]undecan-2-yl]-N-[3-(3-chloro-4-cyano-phenoxy)-2,2,4,4-tetramethyl-cyclobutyl]pyrimidine-5-carboxamide]: in assay [1], the IC50 is above 100 nM. In assay [2], this compound had an EC50 above 100 nM.
Regarding `CC(=O)N1CCc2c(c(N3CCCc4cc(-c5cnn(C)c5)c(C)cc43)nn2C2CCN(C3CCC4(CC3)CN(c3ncc(C(=O)NC5C(C)(C)C(Oc6ccc(C#N)c(Cl)c6)C5(C)C)cn3)C4)CC2)C1` (centres unmarked) [Compound 468, 2-[7-[4-[5-acetyl-3-[7-methyl-6-(1-methylpyrazol-4-yl)-3,4-dihydro-2H-quinolin-1-yl]-6,7-dihydro-4H-pyrazolo[4,3-c]pyridin-1-yl]-1-piperidyl]-2-azaspiro[3.5]nonan-2-yl]-N-[3-(3-chloro-4-cyano-phenoxy)-2,2,4,4-tetramethyl-cyclobutyl]pyrimidine-5-carboxamide], in assay [1], the IC50 is 0.1 to 1 nM. Besides, the EC50 in assay [2] was below 1 nM.
In the case of `COc1cc(OC2C(C)(C)C(NC(=O)c3ccc(N4CCN(C5CN(c6ccc(-c7cc8c(cn7)N(c7nn(C9CCOCC9)c9c7CN(C(C)=O)CC9)CCC8)cn6)C5)CC4)cc3)C2(C)C)ccc1C#N` (centres unmarked) [Compound 324, 4-[4-[1-[5-[1-(5-acetyl-1-tetrahydropyran-4-yl-6,7-dihydro-4H-pyrazolo[4,3-c]pyridin-3-yl)-3,4-dihydro-2H-1,7-naphthyridin-6-yl]-2-pyridyl]azetidin-3-yl]piperazin-1-yl]-N-[3-(4-cyano-3-methoxy-phenoxy)-2,2,4,4-tetramethyl-cyclobutyl]benzamide], the IC50 in assay [1] is at most 0.1 nM. Further, the EC50 in assay [2] is below 1 nM.
The matching figures for `COC(=O)N1c2ccc3c(nc(Cc4ccccc4)n3[C@@H]3CCC[C@@H](C(=O)N4CCN(c5ncc(C(=O)NC6C(C)(C)C(Oc7ccc(C#N)c(Cl)c7)C6(C)C)cn5)CC4)C3)c2CC[C@@H]1C` (stereo partly drawn) [Compound 127, methyl (7S)-2-benzyl-3-[(1R,3R)-3-[4-[5-[[3-(3-chloro-4-cyano-phenoxy)-2,2,4,4-tetramethyl-cyclobutyl]carbamoyl]pyrimidin-2-yl]piperazine-1-carbonyl]cyclohexyl]-7-methyl-8,9-dihydro-7H-imidazo[4,5-f]quinoline-6-carboxylate]: at most 0.1 nM and below 1 nM.
For `COc1cc(OC2C(C)(C)C(NC(=O)c3ccc(OC4CC5(CCC(N6CCC(n7nc(N8CCCc9cc(-c%10cnn(C)c%10)c(C(F)F)cc98)c8c7CCN(C(C)=O)C8)CC6)CC5)C4)cc3)C2(C)C)ccc1C#N` (centres unmarked) [Compound 384, 4-[7-[4-[5-acetyl-3-[7-(difluoromethyl)-6-(1-methylpyrazol-4-yl)-3,4-dihydro-2H-quinolin-1-yl]-6,7-dihydro-4H-pyrazolo[4,3-c]pyridin-1-yl]-1-piperidyl]spiro[3.5]nonan-2-yl] oxy-N-[3-(4-cyano-3-methoxy-phenoxy)-2,2,4,4-tetramethyl-cyclobutyl]benzamide], in that order: at most 0.1 nM and below 1 nM.
The matching figures for `CC(=O)N1CCc2c(c(-c3cccc4cc(-c5ccc(CCC6CC7(C6)CN(c6ncc(C(=O)NC8C(C)(C)C(Oc9ccc(C#N)c(Cl)c9)C8(C)C)cn6)C7)nc5)ncc34)nn2C)C1` (centres unmarked) [Compound 229, 2-[6-[2-[5-[8-(5-acetyl-1-methyl-6,7-dihydro-4H-pyrazolo[4,3-c]pyridin-3-yl)-3-isoquinolyl]-2-pyridyl]ethyl]-2-azaspiro[3.3]heptan-2-yl]-N-[3-(3-chloro-4-cyano-phenoxy)-2,2,4,4-tetramethyl-cyclobutyl]pyrimidine-5-carboxamide]: 0.1 to 1 nM and 1 to 10 nM.
In the case of `CC(=O)N1CCc2c(c(-c3cccc4cc(-c5ccc(C(=O)NCCc6ncc(C(=O)NC7C(C)(C)C(Oc8ccc(C#N)c(Cl)c8)C7(C)C)cn6)nc5)ncc34)nn2C2CCOCC2)C1` (centres unmarked) [Compound 78, 2-[2-[[5-[8-(5-acetyl-1-tetrahydropyran-4-yl-6,7-dihydro-4H-pyrazolo[4,3-c]pyridin-3-yl)-3-isoquinolyl]pyridine-2-carbonyl]amino]ethyl]-N-[3-(3-chloro-4-cyano-phenoxy)-2,2,4,4-tetramethyl-cyclobutyl]pyrimidine-5-carboxamide], in assay [1], the IC50 fell in the range of 1 to 100 nM. For the same compound, the EC50 in assay [2] was below 1 nM.
The compound `Cn1cc(-c2cc3cccc(-c4cc(C5=CCN(CC6CCN(c7ncc(C(=O)NC8C(C)(C)C(Oc9ccc(C#N)c(Cl)c9)C8(C)C)cn7)CC6)CC5)c5c(c4)n(C)c(=O)n5C)c3cn2)cn1` (centres unmarked) [Compound 243, N-[3-(3-chloro-4-cyano-phenoxy)-2,2,4,4-tetramethyl-cyclobutyl]-2-[4-[[4-[1,3-dimethyl-6-[3-(1-methylpyrazol-4-yl)-8-isoquinolyl]-2-oxo-benzimidazol-4-yl]-3,6-dihydro-2H-pyridin-1-yl]methyl]-1-piperidyl]pyrimidine-5-carboxamide] showed an IC50 in assay [1] of 0.1 to 1 nM. In assay [2], this compound showed a 50% effective concentration (EC50) above 100 nM.
In the case of `C[C@@H]1CC(=O)Nc2cccc(-c3ccc4c(c3)c(-c3cnn(C)c3)nn4CC3CCN(c4ncc(C(=O)NC5C(C)(C)C(Oc6ccc(C#N)c(Cl)c6)C5(C)C)cn4)CC3)c2N1` (stereo partly drawn) [Compound 58, N-[3-(3-chloro-4-cyano-phenoxy)-2,2,4,4-tetramethyl-cyclobutyl]-2-[4-[[5-[(4R)-4-methyl-2-oxo-1,3,4,5-tetrahydro-1,5-benzodiazepin-6-yl]-3-(1-methylpyrazol-4-yl)indazol-1-yl]methyl]-1-piperidyl]pyrimidine-5-carboxamide], the IC50 in assay [1] is above 100 nM. This compound also registered an EC50 in assay [2] above 100 nM.

For orientation: IC50 means the point on the concentration scale where inhibition reaches its midpoint. Read a high IC50 as lower potency. Usually EC50 stands for the concentration at which the effect is half-maximal. Low values mean an effect from little substance, high ones a need for much substance.
